Reference: patent US20240049719A1, “ANTIMICROBIAL COATING” (HECOSOL GMBH, priority 2017, published 2024)

Tests used:
E. coli = experiment: JIS test (JIS Z 2801 / ISO 22196) on coated Petri dishes, germ reduction of E. coli; format: cell-based
Description: The reduction factor RL is used to quantify the anti-microbial effectiveness. This reduction factor RL can be represented by the following mathematical relationship: RL=log (A/B). Here, A corresponds to an average value of so-called colony forming units (CFU) per ml on a reference surface without anti-microbial coating. Consequently, B corresponds to an average value of colony forming units (CFU) per ml on a reference surface with an anti-microbial coating according to the present invention. The internationally recognized JIS test (Japanese Industrial Standard Test, JIS Z 2801), which corresponds to ISO standard 22196 in Europe, is used for objective assessment of the germ reducing effect of surfaces. Thereby, Petri dishes coated with the test substance are first wetted with a germ suspension (e.g. […] Here, the experiments can be performed in the dark or under defined lighting conditions (e.g. by means of LED light at 1600 lux). At the end of the incubation, the number of surviving germs is determined and a reduction factor RL is calculated as described above.

Staphylococcus aureus = experiment: JIS test (JIS Z 2801 / ISO 22196) against Staphylococcus aureus; format: cell-based; conditions: in-vitro JIS test, 1600 lux
Procedure: The internationally recognized JIS test (Japanese Industrial Standard Test, JIS Z 2801), which corresponds to ISO standard 22196 in Europe, is used for objective assessment of the germ reducing effect of surfaces.
Thereby, Petri dishes coated with the test substance are first wetted with a germ suspension (e.g. E. coli or Staphylococcus aureus), covered with a foil and then incubated at 35° C. and 95% humidity.
Here, the experiments can be performed in the dark or under defined lighting conditions (e.g. by means of LED light at 1600 lux).
At the end of the incubation, the number of surviving germs is determined and a reduction factor RL is calculated as described above.
The anti-microbial effectiveness of this coating 10′ against the Staphylococcus aureus germ is shown in FIG. 14a after an incubation period of 24 hours under defined light conditions of about 1600 lux with RL=4.1.

[1] = test system: Artemia nauplii (brine shrimp); conditions: in vivo
Description: (§1) Therefore, the toxicological behaviour of this coating towards daphnia (water flea) as well as Artemia nauplii (brine shrimp) was investigated. […] As a result, these animals show the same vitality in the coated plates as in the uncoated ones.

daphnia (water flea) = conditions: in vivo
Description: as §1

[2] = format: physicochemical
Description: Furthermore, it is shown that the structure of the deposited TiO2*AgNO3 matrix is stable against 1000-times wiping with an anti-septic cloth (ethanol, benzalkonium chloride).

Molecule: [Ag+].[Ag+].[O]=[Mo](=[O])([O-])[O-] [Ag2MoO4, silver molybdate]
- anti-microbial effectiveness (class in words) (E. coli; within/after 24 h, 1600 lux): strongly germ-reducing

Molecule: O=[N+]([O-])[O-].[Ag+] [AgNO3, silver nitrate]
- reduction factor RL (E. coli; 5 min incubation, in the dark): 4.3
- reproducible RL values (range over repeated JIS tests) (E. coli; JIS test): 4.0-4.3

Molecule: [Na+].[Na+].[O]=[Mo](=[O])([O-])[O-] [Na2MoO4, sodium molybdate]
- anti-microbial effectiveness (class in words) (E. coli; within/after 24 h, 1600 lux): no anti-microbial effect

Molecule: [O]=[Mo](=[O])([O-])[O-].[Zn+2] [ZnMoO4, zinc molybdate]
- reduction factor RL (E. coli; 5 min incubation, in the dark): 3.2
- effectiveness (in words) (Staphylococcus aureus): germ reducing effectiveness

Molecule: [O]=[W](=[O])([O-])[O-].[Zn+2] [ZnWO4, zinc tungstate]
- anti-microbial effectiveness (class in words) (E. coli; within/after 24 h, 1600 lux): strong

Molecule: [O]=[W](=[O])=[O] [tungsten oxide]
- anti-microbial effectiveness (class in words) (E. coli; within/after 24 h, 1600 lux): strong

Molecule: TiO2*AgNO3
- vitality of animals in coated vs uncoated plates [1]: same vitality
- vitality of animals in coated vs uncoated plates (daphnia (water flea)): same vitality
- stability of deposited matrix structure against wiping [2]: stable

Molecule: ammonium heptamolybdate [(NH4)6Mo7O24]
- reduction factor RL (anti-microbial effectiveness) (E. coli; 1 h incubation, 1600 lux): 1.4
- reduction factor RL (E. coli; 24 h incubation, 1600 lux): 4.3
- anti-microbial effectiveness (class in words) (E. coli; after 1 h, 1600 lux): significant

Molecule: tungsten molybdate
- anti-microbial effectiveness (class in words) (E. coli; after 1 h, 1600 lux): no antimicrobial effectiveness
- anti-microbial effectiveness (class in words) (E. coli; within/after 24 h, 1600 lux): no antimicrobial effectiveness
